Measurements as given in ChEMBL document CHEMBL1201862, “PubChem BioAssay data set” (2004).
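1) Cells in 96-well plates. 2) Compound, 48 h, 5 concentrations. 3) Linear interpolation between surrounding doses. 4) Unreached endpoint = highest concentration. The concentration for 50% growth inhibition is given as GI50.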 Active and inactive are the calls of the source. Rule as the data show it: active = GI50 up to about 1.1 µM and inactive = higher.

Assays:
Test in all cases: NCI anticancer screen, dose series, 48 h
SF-268 = system: SF-268
SK-MEL-2 = system: SK-MEL-2
MDA-MB-231 = system: MDA-MB-231
786-0 = system: 786-0
HCT-15 = system: HCT-15
SK-MEL-5 = system: SK-MEL-5
LOX IMVI = system: LOX IMVI
NCI/ADR-RES = system: NCI/ADR-RES
SF-295 = system: SF-295
HOP-92 = system: HOP-92
NCI-H460 = system: NCI-H460
NCI-H522 = system: NCI-H522
SN12C = system: SN12C
CCRF-CEM = system: CCRF-CEM
DU-145 = system: DU-145
SK-OV-3 = system: SK-OV-3
MCF7 = system: MCF7
HT-29 = system: HT-29
SNB-75 = system: SNB-75

Which GI50 (SF-268) does the source give for C#C[C@]1(O)CC[C@H]2[C@@H]3CCC4=C/C(=N/CCOC(=O)c5cccc6cc7ccccc7nc56)CC[C@@H]4[C@H]3CC[C@@]21C here?
The GI50 was 20.6 µM (inactive).

What about the GI50 (SK-MEL-2) of the same compound?
The GI50 was 21.7 µM (inactive).

What about the GI50 (MDA-MB-231) of the same compound?
The GI50 was 16.4 µM (inactive).

What about the GI50 (786-0) of the same compound?
Its GI50 is 34.5 µM (inactive).

What about the GI50 (HCT-15) of the same compound?
Its GI50 is 17.5 µM.

What about the GI50 (SK-MEL-5) of the same compound?
The GI50 was 23.7 µM (inactive).

And the GI50 (LOX IMVI)?
Its GI50 is 12.3 µM (inactive).

And the GI50 (NCI/ADR-RES)?
The GI50 was 26 µM (inactive).

What about the GI50 (SF-295) of the same compound?
Its GI50 is 22.3 µM (inactive).

What about the GI50 (HOP-92) of the same compound?
The GI50 was 20.7 µM (inactive).

And the GI50 (NCI-H460)?
The GI50 was 14.9 µM (inactive).

What about the GI50 (NCI-H522) of the same compound?
Its GI50 is 17.9 µM (inactive).

And the GI50 (SN12C)?
The GI50 was 49.1 µM (inactive).

And the GI50 (CCRF-CEM)?
The GI50 was > 100 µM (inactive).

And the GI50 (DU-145)?
Its GI50 is 21 µM (inactive).

What about the GI50 (SK-OV-3) of the same compound?
The GI50 was 64.4 µM (inactive).

And the GI50 (MCF7)?
Its GI50 is 17.3 µM (inactive).

And the GI50 (HT-29)?
The GI50 was 28.4 µM (inactive).

For NC1=CN(Cc2ccccc2)C2=N/C(=C\c3ccco3)C(=O)N12, which GI50 (SF-268) is on record?
Its GI50 is > 100 µM (inactive).

And the GI50 (SK-MEL-2)?
Its GI50 is > 100 µM (inactive).

What about the GI50 (MDA-MB-231) of the same compound?
Its GI50 is > 100 µM (inactive).

And the GI50 (786-0)?
The GI50 was > 100 µM (inactive).

And the GI50 (HCT-15)?
Its GI50 is over 100 µM.

What about the GI50 (SK-MEL-5) of the same compound?
The GI50 was > 100 µM (inactive).

What about the GI50 (LOX IMVI) of the same compound?
Its GI50 is > 100 µM (inactive).

And the GI50 (NCI/ADR-RES)?
Its GI50 is > 100 µM (inactive).

And the GI50 (SF-295)?
The GI50 was > 100 µM (inactive).

What about the GI50 (SNB-75) of the same compound?
The GI50 was > 100 µM (inactive).

And the GI50 (HOP-92)?
The GI50 was > 100 µM (inactive).

What about the GI50 (NCI-H460) of the same compound?
The GI50 was > 100 µM (inactive).

What about the GI50 (NCI-H522) of the same compound?
The GI50 was > 100 µM (inactive).

What about the GI50 (SN12C) of the same compound?
Its GI50 is > 100 µM (inactive).

And the GI50 (CCRF-CEM)?
Its GI50 is > 100 µM (inactive).

What about the GI50 (DU-145) of the same compound?
The GI50 was > 100 µM (inactive).

What about the GI50 (SK-OV-3) of the same compound?
Its GI50 is > 100 µM (inactive).

What about the GI50 (MCF7) of the same compound?
The GI50 was > 100 µM (inactive).

What about the GI50 (HT-29) of the same compound?
Its GI50 is > 100 µM (inactive).

Which GI50 (SF-268) does the source give for CC1CNC(c2ccc(CN3CCC(CCCC4CCN(Cc5ccc(C6=NC(C)CN6)cc5)CC4)CC3)cc2)=N1 (stereo not drawn) here?
The GI50 was > 100 µM (inactive).

What about the GI50 (SK-MEL-2) of the same compound?
Its GI50 is 21.7 µM (inactive).

What about the GI50 (MDA-MB-231) of the same compound?
Its GI50 is 21.2 µM (inactive).

And the GI50 (786-0)?
The GI50 was > 100 µM (inactive).

And the GI50 (HCT-15)?
Its GI50 is over 100 µM.

What about the GI50 (SK-MEL-5) of the same compound?
The GI50 was > 100 µM (inactive).

And the GI50 (LOX IMVI)?
The GI50 was 82.4 µM (inactive).

What about the GI50 (NCI/ADR-RES) of the same compound?
The GI50 was > 100 µM (inactive).

What about the GI50 (SF-295) of the same compound?
Its GI50 is > 100 µM (inactive).

And the GI50 (SNB-75)?
Its GI50 is 23.4 µM (inactive).

What about the GI50 (HOP-92) of the same compound?
Its GI50 is 26 µM (inactive).

What about the GI50 (NCI-H460) of the same compound?
The GI50 was 18.5 µM (inactive).

What about the GI50 (NCI-H522) of the same compound?
Its GI50 is 23.5 µM (inactive).

And the GI50 (SN12C)?
The GI50 was 84.7 µM (inactive).

And the GI50 (CCRF-CEM)?
Its GI50 is 19.5 µM (inactive).

What about the GI50 (DU-145) of the same compound?
Its GI50 is 45.8 µM (inactive).

And the GI50 (SK-OV-3)?
Its GI50 is 25.5 µM (inactive).

And the GI50 (MCF7)?
The GI50 was 19.8 µM (inactive).

What about the GI50 (HT-29) of the same compound?
Its GI50 is 30.9 µM (inactive).

For Cc1ccc(-c2cc(-c3ccc(Cl)cc3)nc(/N=C3\C(=O)N(CN(C)C)c4ccccc43)n2)cc1, which GI50 (SF-268) is on record?
Its GI50 is 89.9 µM (inactive).

What about the GI50 (SK-MEL-2) of the same compound?
Its GI50 is 31.4 µM (inactive).

And the GI50 (MDA-MB-231)?
Its GI50 is > 100 µM (inactive).

What about the GI50 (786-0) of the same compound?
Its GI50 is 54.6 µM (inactive).

What about the GI50 (HCT-15) of the same compound?
Its GI50 is 41.1 µM.

What about the GI50 (SK-MEL-5) of the same compound?
Its GI50 is 48.4 µM (inactive).

What about the GI50 (LOX IMVI) of the same compound?
The GI50 was 24.2 µM (inactive).

And the GI50 (NCI/ADR-RES)?
The GI50 was 43.5 µM (inactive).

What about the GI50 (SF-295) of the same compound?
Its GI50 is > 100 µM (inactive).

What about the GI50 (SNB-75) of the same compound?
Its GI50 is 57.8 µM (inactive).

And the GI50 (HOP-92)?
Its GI50 is 98.9 µM (inactive).

What about the GI50 (NCI-H460) of the same compound?
The GI50 was 39.9 µM (inactive).

And the GI50 (NCI-H522)?
Its GI50 is 20.8 µM (inactive).

And the GI50 (SN12C)?
The GI50 was > 100 µM (inactive).

What about the GI50 (CCRF-CEM) of the same compound?
The GI50 was 14.9 µM (inactive).

And the GI50 (DU-145)?
The GI50 was 31.7 µM (inactive).

What about the GI50 (SK-OV-3) of the same compound?
The GI50 was > 100 µM (inactive).

And the GI50 (MCF7)?
Its GI50 is 37.3 µM (inactive).

And the GI50 (HT-29)?
The GI50 was 46.1 µM (inactive).

Which GI50 (SF-268) does the source give for O=C(N/N=C(COc1ccccc1)\N=C\c1cccnc1)c1ccncc1 here?
Its GI50 is > 100 µM (inactive).

And the GI50 (SK-MEL-2)?
The GI50 was > 100 µM (inactive).

What about the GI50 (MDA-MB-231) of the same compound?
The GI50 was > 100 µM (inactive).

And the GI50 (786-0)?
The GI50 was > 100 µM (inactive).

What about the GI50 (HCT-15) of the same compound?
Its GI50 is over 100 µM.

And the GI50 (LOX IMVI)?
Its GI50 is > 100 µM (inactive).

What about the GI50 (NCI/ADR-RES) of the same compound?
Its GI50 is > 100 µM (inactive).

What about the GI50 (SF-295) of the same compound?
Its GI50 is > 100 µM (inactive).

What about the GI50 (SNB-75) of the same compound?
Its GI50 is 36.8 µM (inactive).

What about the GI50 (NCI-H460) of the same compound?
The GI50 was > 100 µM (inactive).

What about the GI50 (NCI-H522) of the same compound?
Its GI50 is > 100 µM (inactive).

And the GI50 (SN12C)?
Its GI50 is > 100 µM (inactive).

And the GI50 (CCRF-CEM)?
Its GI50 is > 100 µM (inactive).

What about the GI50 (DU-145) of the same compound?
The GI50 was > 100 µM (inactive).

And the GI50 (SK-OV-3)?
The GI50 was > 100 µM (inactive).

And the GI50 (MCF7)?
The GI50 was > 100 µM (inactive).

What about the GI50 (HT-29) of the same compound?
Its GI50 is > 100 µM (inactive).

CCOC(=O)c1cc2c(=Cc3ccc(N(C)C)cc3)c3ccccc3n2[n+]1C was tested. Which GI50 (SF-268) did it give?
Its GI50 is 3.21 µM (inactive).

And the GI50 (SK-MEL-2)?
Its GI50 is 1.48 µM (inactive).

And the GI50 (MDA-MB-231)?
The GI50 was 3.86 µM (inactive).

And the GI50 (786-0)?
Its GI50 is 1.93 µM (inactive).

And the GI50 (HCT-15)?
The GI50 was 10.4 µM.

And the GI50 (SK-MEL-5)?
Its GI50 is 1.32 µM (inactive).

What about the GI50 (LOX IMVI) of the same compound?
Its GI50 is 1.47 µM (inactive).

And the GI50 (NCI/ADR-RES)?
The GI50 was > 100 µM (inactive).

And the GI50 (SF-295)?
The GI50 was 3.72 µM (inactive).

What about the GI50 (HOP-92) of the same compound?
Its GI50 is 2.88 µM (inactive).

What about the GI50 (NCI-H460) of the same compound?
The GI50 was 2.44 µM (inactive).

What about the GI50 (SN12C) of the same compound?
Its GI50 is < 0.01 µM (active).

And the GI50 (DU-145)?
Its GI50 is 1.38 µM (inactive).

What about the GI50 (SK-OV-3) of the same compound?
The GI50 was 3.94 µM (inactive).

And the GI50 (MCF7)?
Its GI50 is 2.34 µM (inactive).

What about the GI50 (HT-29) of the same compound?
The GI50 was < 0.01 µM (active).
